What was measured:
Details in all cases: Compound concentration 10 µM
[1] = biological target: T1, 5-hydroxytryptamine receptor 2C (Homo sapiens) (UniProt P28335)
T1 sequence (whole entry): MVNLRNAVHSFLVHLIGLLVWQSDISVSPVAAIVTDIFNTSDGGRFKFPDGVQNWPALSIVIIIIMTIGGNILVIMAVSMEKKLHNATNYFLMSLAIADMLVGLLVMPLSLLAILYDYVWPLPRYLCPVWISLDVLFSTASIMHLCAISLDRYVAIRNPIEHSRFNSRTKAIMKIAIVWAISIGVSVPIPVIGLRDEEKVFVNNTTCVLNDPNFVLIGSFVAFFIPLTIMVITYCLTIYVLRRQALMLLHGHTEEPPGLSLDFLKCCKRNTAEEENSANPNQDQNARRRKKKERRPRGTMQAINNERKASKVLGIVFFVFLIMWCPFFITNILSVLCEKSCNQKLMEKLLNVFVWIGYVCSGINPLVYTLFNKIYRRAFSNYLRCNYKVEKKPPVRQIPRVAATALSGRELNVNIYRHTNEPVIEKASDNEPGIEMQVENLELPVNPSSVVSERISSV

[2] = biological target: 5-hydroxytryptamine receptor 6 (Homo sapiens) (UniProt P50406)
[3] = biological target: Histamine H3 receptor (Homo sapiens) (UniProt Q9Y5N1)
[4] = biological target: D(1B) dopamine receptor (Homo sapiens) (UniProt P21918)
[5] = biological target: 5-hydroxytryptamine receptor 2A (Homo sapiens) (UniProt P28223)
[6] = biological target: Delta-type opioid receptor (Homo sapiens) (UniProt P41143)
[7] = biological target: 5-hydroxytryptamine receptor 1D (Homo sapiens) (UniProt P28221)
[8] = biological target: Mu-type opioid receptor (Homo sapiens) (UniProt P35372)
[9] = biological target: Beta-2 adrenergic receptor (Homo sapiens) (UniProt P07550)
[10] = biological target: Sigma intracellular receptor 2 (Homo sapiens) (UniProt Q5BJF2)
[11] = biological target: T2, Muscarinic acetylcholine receptor M1 (Homo sapiens) (UniProt P11229)
T2 sequence (whole entry): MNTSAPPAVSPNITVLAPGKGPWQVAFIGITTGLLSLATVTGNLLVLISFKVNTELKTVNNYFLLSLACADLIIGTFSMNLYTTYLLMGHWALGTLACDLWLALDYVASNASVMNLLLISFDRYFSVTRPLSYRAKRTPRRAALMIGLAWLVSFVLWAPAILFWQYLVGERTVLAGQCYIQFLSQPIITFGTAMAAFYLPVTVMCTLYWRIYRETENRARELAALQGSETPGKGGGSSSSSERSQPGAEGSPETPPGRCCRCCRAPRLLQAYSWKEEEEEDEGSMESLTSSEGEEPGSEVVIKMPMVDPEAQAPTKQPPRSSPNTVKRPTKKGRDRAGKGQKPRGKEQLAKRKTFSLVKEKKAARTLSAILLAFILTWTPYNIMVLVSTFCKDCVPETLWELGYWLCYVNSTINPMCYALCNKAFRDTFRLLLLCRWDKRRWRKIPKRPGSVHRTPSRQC

[12] = biological target: T3, Alpha-2B adrenergic receptor (Homo sapiens) (UniProt P18089)
T3 sequence (whole entry): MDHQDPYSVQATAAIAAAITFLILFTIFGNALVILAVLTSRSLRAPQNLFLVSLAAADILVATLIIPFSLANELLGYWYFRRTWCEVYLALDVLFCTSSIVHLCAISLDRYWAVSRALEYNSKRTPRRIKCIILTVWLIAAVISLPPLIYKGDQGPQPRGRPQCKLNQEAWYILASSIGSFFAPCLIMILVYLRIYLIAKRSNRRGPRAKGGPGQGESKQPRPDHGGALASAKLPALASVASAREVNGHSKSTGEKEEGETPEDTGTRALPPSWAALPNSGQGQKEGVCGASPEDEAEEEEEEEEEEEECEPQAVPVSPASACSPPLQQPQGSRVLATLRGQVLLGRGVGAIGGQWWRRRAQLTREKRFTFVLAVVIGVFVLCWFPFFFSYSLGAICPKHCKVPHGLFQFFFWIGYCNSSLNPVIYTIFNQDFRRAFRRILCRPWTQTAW

[13] = biological target: 5-hydroxytryptamine receptor 7 (Homo sapiens) (UniProt P34969)
[14] = biological target: T4, Alpha-1D adrenergic receptor (Homo sapiens) (UniProt P25100)
T4 sequence (whole entry): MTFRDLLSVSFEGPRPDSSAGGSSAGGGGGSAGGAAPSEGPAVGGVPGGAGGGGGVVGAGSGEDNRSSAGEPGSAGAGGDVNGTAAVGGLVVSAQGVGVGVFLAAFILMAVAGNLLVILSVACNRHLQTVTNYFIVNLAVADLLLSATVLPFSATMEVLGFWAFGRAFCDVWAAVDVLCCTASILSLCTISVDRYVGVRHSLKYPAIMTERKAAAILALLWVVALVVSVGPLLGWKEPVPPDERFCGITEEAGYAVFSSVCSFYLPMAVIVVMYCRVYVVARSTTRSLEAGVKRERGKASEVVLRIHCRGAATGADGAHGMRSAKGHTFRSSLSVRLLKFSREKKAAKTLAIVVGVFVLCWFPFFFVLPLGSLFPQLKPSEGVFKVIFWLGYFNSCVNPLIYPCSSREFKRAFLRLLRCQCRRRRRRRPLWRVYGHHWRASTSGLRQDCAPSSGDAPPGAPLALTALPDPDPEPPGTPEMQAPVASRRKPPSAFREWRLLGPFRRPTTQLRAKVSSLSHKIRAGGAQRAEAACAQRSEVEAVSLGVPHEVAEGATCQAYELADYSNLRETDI

[15] = biological target: Histamine H4 receptor (Homo sapiens) (UniProt Q9H3N8)
[16] = biological target: Muscarinic acetylcholine receptor M3 (Homo sapiens) (UniProt P20309)
Chain of Muscarinic acetylcholine receptor M3 (Homo sapiens) (P20309 whole entry, looked up): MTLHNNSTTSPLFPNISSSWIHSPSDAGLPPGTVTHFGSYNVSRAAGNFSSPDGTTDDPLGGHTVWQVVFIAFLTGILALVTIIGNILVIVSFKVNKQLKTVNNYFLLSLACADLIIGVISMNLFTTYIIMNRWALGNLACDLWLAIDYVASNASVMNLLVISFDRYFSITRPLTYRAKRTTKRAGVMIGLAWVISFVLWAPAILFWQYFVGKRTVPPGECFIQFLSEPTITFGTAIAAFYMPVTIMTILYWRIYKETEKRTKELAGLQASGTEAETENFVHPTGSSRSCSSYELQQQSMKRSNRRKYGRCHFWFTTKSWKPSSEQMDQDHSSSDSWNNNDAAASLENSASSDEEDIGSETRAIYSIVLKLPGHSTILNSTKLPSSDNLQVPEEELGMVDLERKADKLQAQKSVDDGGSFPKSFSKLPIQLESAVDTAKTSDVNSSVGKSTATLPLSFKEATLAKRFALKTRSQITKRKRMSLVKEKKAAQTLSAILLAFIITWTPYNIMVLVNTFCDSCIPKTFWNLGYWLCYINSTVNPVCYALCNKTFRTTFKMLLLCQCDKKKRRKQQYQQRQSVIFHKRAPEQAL

Chain of D(1B) dopamine receptor (Homo sapiens) (P21918 whole entry): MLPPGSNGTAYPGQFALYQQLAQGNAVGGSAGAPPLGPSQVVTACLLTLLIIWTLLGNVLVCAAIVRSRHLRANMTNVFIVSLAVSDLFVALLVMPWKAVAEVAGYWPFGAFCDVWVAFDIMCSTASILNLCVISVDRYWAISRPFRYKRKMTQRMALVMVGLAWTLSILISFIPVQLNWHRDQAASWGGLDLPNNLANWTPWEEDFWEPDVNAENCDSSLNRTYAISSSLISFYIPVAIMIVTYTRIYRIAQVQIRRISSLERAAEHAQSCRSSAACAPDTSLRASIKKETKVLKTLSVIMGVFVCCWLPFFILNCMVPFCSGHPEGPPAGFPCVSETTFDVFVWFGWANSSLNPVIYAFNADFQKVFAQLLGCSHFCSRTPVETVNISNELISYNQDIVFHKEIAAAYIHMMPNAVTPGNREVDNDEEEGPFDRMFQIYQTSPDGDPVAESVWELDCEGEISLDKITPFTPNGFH
Chain of 5-hydroxytryptamine receptor 1D (Homo sapiens) (P28221 whole entry): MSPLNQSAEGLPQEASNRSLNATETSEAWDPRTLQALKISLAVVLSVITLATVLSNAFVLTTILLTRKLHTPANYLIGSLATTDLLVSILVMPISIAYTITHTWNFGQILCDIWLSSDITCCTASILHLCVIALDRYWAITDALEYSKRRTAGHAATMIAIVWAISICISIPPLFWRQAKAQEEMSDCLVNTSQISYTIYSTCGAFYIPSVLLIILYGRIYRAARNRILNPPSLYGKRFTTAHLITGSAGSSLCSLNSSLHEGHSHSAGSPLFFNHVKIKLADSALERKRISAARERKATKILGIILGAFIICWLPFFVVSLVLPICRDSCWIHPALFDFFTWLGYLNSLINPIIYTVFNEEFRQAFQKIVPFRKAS
Chain of Histamine H4 receptor (Homo sapiens) (Q9H3N8 whole entry): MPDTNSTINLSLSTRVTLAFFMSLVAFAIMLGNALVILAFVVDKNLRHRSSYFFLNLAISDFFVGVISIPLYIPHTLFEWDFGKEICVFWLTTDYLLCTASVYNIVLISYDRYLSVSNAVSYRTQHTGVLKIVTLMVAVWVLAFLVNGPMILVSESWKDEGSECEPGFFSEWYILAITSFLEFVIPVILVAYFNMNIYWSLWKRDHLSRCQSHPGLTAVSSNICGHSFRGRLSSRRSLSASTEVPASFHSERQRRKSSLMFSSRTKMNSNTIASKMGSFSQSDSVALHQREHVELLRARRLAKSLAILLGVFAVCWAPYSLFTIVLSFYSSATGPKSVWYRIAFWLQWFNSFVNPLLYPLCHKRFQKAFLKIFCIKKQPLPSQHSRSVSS
Chain of Delta-type opioid receptor (Homo sapiens) (P41143 whole entry): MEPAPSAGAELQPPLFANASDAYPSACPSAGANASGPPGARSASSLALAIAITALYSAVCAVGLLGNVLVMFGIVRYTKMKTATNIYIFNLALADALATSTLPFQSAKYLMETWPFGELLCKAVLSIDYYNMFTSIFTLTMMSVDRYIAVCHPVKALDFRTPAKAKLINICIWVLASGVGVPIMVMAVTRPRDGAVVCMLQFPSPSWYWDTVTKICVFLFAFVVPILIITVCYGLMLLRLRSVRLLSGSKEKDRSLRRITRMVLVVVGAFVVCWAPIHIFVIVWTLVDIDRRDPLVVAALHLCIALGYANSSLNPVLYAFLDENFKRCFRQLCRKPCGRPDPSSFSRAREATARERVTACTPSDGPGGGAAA
Chain of 5-hydroxytryptamine receptor 2A (Homo sapiens) (P28223 whole entry): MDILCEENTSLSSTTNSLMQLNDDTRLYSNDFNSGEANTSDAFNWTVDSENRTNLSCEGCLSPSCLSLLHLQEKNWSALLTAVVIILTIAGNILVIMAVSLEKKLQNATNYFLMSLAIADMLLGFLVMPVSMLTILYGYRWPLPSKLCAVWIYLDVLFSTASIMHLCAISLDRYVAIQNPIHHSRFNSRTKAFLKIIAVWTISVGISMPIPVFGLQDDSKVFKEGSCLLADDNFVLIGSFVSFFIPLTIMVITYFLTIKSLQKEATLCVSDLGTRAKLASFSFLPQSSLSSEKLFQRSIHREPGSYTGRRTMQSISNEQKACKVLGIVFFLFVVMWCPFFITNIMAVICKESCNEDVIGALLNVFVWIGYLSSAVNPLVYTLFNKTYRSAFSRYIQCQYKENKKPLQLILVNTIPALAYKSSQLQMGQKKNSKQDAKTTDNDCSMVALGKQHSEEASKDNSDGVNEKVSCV
Chain of 5-hydroxytryptamine receptor 6 (Homo sapiens) (P50406 whole entry): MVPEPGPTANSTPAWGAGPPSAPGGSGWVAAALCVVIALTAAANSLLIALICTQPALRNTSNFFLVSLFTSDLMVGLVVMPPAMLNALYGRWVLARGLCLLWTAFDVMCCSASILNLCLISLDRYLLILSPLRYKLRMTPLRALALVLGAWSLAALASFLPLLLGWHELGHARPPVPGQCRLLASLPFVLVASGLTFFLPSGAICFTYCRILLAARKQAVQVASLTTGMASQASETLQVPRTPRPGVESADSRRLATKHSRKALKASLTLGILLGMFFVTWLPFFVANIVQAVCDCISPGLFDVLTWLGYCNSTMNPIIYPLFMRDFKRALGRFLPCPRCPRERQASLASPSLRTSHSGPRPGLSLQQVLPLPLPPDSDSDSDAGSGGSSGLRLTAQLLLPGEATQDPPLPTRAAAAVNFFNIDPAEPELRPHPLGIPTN
Chain of Beta-2 adrenergic receptor (Homo sapiens) (P07550 whole entry, looked up): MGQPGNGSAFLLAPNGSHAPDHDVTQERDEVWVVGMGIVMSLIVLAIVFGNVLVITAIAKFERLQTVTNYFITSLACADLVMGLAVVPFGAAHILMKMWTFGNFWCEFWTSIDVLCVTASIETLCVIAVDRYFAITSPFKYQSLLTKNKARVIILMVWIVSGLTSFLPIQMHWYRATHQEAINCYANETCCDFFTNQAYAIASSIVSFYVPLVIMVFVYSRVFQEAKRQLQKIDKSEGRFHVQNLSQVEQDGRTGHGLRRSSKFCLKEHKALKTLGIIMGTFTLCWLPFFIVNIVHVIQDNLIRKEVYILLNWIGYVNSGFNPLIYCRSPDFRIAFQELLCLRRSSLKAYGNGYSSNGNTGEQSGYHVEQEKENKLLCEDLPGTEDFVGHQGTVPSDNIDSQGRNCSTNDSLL
Chain of 5-hydroxytryptamine receptor 7 (Homo sapiens) (P34969 whole entry): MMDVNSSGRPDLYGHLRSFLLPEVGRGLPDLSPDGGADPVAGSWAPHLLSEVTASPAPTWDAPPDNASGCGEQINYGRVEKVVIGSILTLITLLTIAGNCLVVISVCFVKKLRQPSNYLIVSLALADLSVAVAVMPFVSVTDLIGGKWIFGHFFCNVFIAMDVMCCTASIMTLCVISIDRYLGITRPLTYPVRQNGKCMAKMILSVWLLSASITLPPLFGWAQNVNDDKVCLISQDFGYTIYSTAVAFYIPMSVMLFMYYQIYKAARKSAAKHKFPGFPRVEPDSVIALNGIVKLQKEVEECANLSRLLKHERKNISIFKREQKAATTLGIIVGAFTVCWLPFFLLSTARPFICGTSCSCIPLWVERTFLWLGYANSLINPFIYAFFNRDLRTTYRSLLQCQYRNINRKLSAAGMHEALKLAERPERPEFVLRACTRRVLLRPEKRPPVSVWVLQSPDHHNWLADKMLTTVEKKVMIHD
Chain of Histamine H3 receptor (Homo sapiens) (Q9Y5N1 whole entry): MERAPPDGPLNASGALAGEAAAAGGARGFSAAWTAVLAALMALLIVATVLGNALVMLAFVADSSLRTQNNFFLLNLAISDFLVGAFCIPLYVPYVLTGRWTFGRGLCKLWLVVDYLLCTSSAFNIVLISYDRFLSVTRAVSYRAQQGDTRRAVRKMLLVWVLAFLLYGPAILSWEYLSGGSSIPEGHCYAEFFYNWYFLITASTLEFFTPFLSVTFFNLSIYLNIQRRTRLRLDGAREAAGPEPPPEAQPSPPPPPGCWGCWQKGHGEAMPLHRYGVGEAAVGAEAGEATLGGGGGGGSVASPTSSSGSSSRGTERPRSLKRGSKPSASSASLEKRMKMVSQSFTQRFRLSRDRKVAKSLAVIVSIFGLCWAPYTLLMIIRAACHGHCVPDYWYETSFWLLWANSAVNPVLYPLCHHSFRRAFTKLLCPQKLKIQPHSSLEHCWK
Chain of Mu-type opioid receptor (Homo sapiens) (P35372 whole entry): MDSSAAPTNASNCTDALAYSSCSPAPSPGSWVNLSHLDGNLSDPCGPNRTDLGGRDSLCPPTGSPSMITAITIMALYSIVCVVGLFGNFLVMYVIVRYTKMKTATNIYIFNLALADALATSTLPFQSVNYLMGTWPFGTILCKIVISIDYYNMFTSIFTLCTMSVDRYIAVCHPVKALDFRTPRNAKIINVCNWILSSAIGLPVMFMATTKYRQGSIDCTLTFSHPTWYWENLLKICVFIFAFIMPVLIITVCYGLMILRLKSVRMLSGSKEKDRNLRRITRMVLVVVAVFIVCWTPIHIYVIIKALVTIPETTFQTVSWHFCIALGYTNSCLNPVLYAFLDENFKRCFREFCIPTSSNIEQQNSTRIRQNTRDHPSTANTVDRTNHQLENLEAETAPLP

CN1C(=O)[C@@H](NC(=O)c2cc3ccccc3[nH]2)N=C(c2ccccc2)c2ccccc21
inhibition [1]: 16.1%
inhibition [2]: 25.7%
inhibition [3]: 5.34%
inhibition [4]: -2.85%
inhibition [5]: 19.7%
inhibition [6]: 13%
inhibition [7]: 23.2%
inhibition [8]: 5.76%
inhibition [9]: 4.31%
inhibition [10]: 8.74%
inhibition [11]: 5.19%
inhibition [12]: 34.7%
inhibition [13]: 13.6%
inhibition [14]: -0.46%
inhibition [15]: -4.47%

CN1CC(=O)N=C1NC(=O)Nc1cccc(Cl)c1
inhibition [1]: 5.25%
inhibition [2]: -0.6%
inhibition [3]: -4.69%
inhibition [4]: 18.3%
inhibition [5]: 1.19%
inhibition [6]: -3.44%
inhibition [7]: 4.68%
inhibition [8]: 5.37%
inhibition [9]: -8.89%
inhibition [10]: 0.02%
inhibition [16]: 1.42%
inhibition [12]: -6.21%
inhibition [13]: 0.17%
inhibition [14]: -0.49%
inhibition [15]: -9.18%

CNC[C@H](O)c1cccc(O)c1
inhibition [1]: 16.3%
inhibition [2]: 9.39%
inhibition [3]: 13.1%
inhibition [5]: 25.3%
inhibition [6]: 13.8%
inhibition [7]: 48.1%
inhibition [8]: 2.89%
inhibition [9]: -1.97%
inhibition [10]: 24.9%
inhibition [16]: -8.03%
inhibition [11]: 7.7%
inhibition [12]: 21.3%
inhibition [13]: 75.5%
inhibition [14]: 26.6%
inhibition [15]: 19.6%

OC1(c2ccc(Cl)cc2)CCN(Cc2c[nH]c3ccccc23)CC1
inhibition [1]: 18.8%
inhibition [2]: -7.57%
inhibition [4]: 40.1%
inhibition [5]: 66.9%
inhibition [6]: 3.7%
inhibition [7]: 46.1%
inhibition [8]: 65%
inhibition [9]: -1.99%
inhibition [10]: 97.8%
inhibition [16]: -9.56%
inhibition [12]: 83.8%
inhibition [13]: 10.4%
inhibition [14]: 21.4%
inhibition [15]: 13.8%

O=C(Cc1ccc(Cl)c(Cl)c1)N1CCCC[C@H]1CN1CCCC1
inhibition [1]: -3.64%
inhibition [2]: -5.65%
inhibition [3]: 37.3%
inhibition [4]: -9.99%
inhibition [5]: 6.03%
inhibition [6]: 17.6%
inhibition [7]: 14.8%
inhibition [8]: 49.6%
inhibition [9]: 7.92%
inhibition [10]: 92.3%
inhibition [11]: 9.74%
inhibition [12]: 34.8%
inhibition [13]: 31.1%
inhibition [14]: 12.3%
inhibition [15]: -9.98%

COc1cccc([C@H](O)C2CCN(CCc3ccc(F)cc3)CC2)c1OC
inhibition [2]: 5.14%
inhibition [3]: 3.17%
inhibition [4]: 4.09%
inhibition [6]: 4.4%
inhibition [7]: 73.8%
inhibition [8]: 8.06%
inhibition [9]: 5.48%
inhibition [10]: 95.9%
inhibition [16]: -8.67%
inhibition [12]: 71.7%
inhibition [13]: 34.5%
inhibition [14]: 34.5%
inhibition [15]: 3.4%

COc1ccc(C2(O)OC(=O)C(c3ccc4c(c3)OCO4)=C2Cc2cc(OC)c(OC)c(OC)c2)cc1 (stereo not drawn)
inhibition [2]: -2.9%
inhibition [3]: -8.58%
inhibition [5]: 12.4%
inhibition [7]: 21.7%
inhibition [8]: -4.54%
inhibition [16]: 6.22%
inhibition [11]: -8.77%
inhibition [12]: -2.96%
inhibition [13]: 12%
inhibition [14]: 11%
inhibition [15]: 14.6%

O=C(c1cc2c(cc1F)OC(c1ccc(F)cc1)(c1ccc(Cl)cc1Cl)O2)N1CCOCC1 (stereo not drawn)
inhibition [1]: 73.4%
inhibition [2]: -8.59%
inhibition [3]: 21%
inhibition [4]: 75.9%
inhibition [5]: 57.3%
inhibition [6]: 24.5%
inhibition [7]: 20.9%
inhibition [8]: 52.7%
inhibition [9]: 5.79%
inhibition [10]: 72.4%
inhibition [16]: -9.02%
inhibition [12]: 28.5%
inhibition [13]: 5.01%
inhibition [14]: 3.46%
inhibition [15]: 32.4%

Nc1nc(NCCc2ccc(O)cc2)nc2nc(-c3ccco3)nn12
inhibition [1]: 8.15%
inhibition [4]: 27.8%
inhibition [5]: 17.1%
inhibition [6]: 2.38%
inhibition [7]: 19.7%
inhibition [8]: 0.03%
inhibition [9]: -3.4%
inhibition [10]: 90.6%
inhibition [16]: -6.51%
inhibition [12]: -1.01%
inhibition [13]: 13.5%
inhibition [14]: 8.13%

CCCCN1CCC(COC(=O)c2cc(Cl)c(N)c3c2OCCO3)CC1
inhibition [1]: 58.2%
inhibition [2]: 20.1%
inhibition [3]: 32.8%
inhibition [4]: -0.98%
inhibition [5]: 62.2%
inhibition [6]: 0.6%
inhibition [7]: 54.6%
inhibition [8]: 9.58%
inhibition [9]: 14.1%
inhibition [10]: 96.8%
inhibition [16]: 14.6%
inhibition [12]: 33.3%
inhibition [13]: 40%
inhibition [14]: 24.6%
inhibition [15]: -1.37%

COc1cc2c(CCNC(C)=O)c[nH]c2cc1Cl
inhibition [1]: 18.8%
inhibition [5]: -6.6%
inhibition [6]: -3.58%
inhibition [7]: 45.4%
inhibition [8]: -1.77%
inhibition [9]: 3.89%
inhibition [10]: -5.25%
inhibition [11]: -4.88%
inhibition [12]: 9.08%
inhibition [13]: -0.31%
inhibition [14]: 6.2%
inhibition [15]: 2.03%

C[C@@H](N)Cc1c[nH]cn1
inhibition [1]: 5.48%
inhibition [2]: 2.58%
inhibition [3]: 103%
inhibition [4]: 24.8%
inhibition [5]: -2.41%
inhibition [7]: 6.42%
inhibition [9]: 10.2%
inhibition [10]: 20.2%
inhibition [16]: -7.33%
inhibition [11]: 2.87%
inhibition [12]: 9.47%
inhibition [13]: 3.45%
inhibition [15]: 95.7%

Cc1ccccc1C(=O)Nc1ccc(C(=O)N2CCCC(O)c3cc(Cl)ccc32)c(C)c1 (stereo not drawn)
inhibition [1]: 78.3%
inhibition [2]: 1.21%
inhibition [3]: 6.39%
inhibition [4]: 8.81%
inhibition [5]: 12.9%
inhibition [6]: 7.13%
inhibition [7]: 88.5%
inhibition [8]: 53.2%
inhibition [10]: 91.8%
inhibition [16]: 17.3%
inhibition [11]: -6.43%
inhibition [12]: 17.5%
inhibition [13]: 8.44%
inhibition [14]: 12.7%
inhibition [15]: 3.66%

Cc1cccc([C@H](C)c2c[nH]cn2)c1C
inhibition [1]: 14.5%
inhibition [2]: 1.41%
inhibition [3]: 2.75%
inhibition [4]: 11.4%
inhibition [5]: 26.8%
inhibition [6]: -4.15%
inhibition [7]: 145%
inhibition [9]: 20.7%
inhibition [10]: 37.8%
inhibition [12]: 97.8%
inhibition [13]: 68.1%
inhibition [14]: 42.8%
inhibition [15]: 11.3%

Source: ChEMBL document CHEMBL5442219
